Source: patent US20240197738A1, “COMPOUND 7AI IN TREATING EWING SARCOMA BY INHIBITING OTUD7A” (The University of North Carolina at Chapel Hill, priority 2021, published 2024)

Key:
[1] = molecular target: T1, OTUD7A-mediated deubiquitination of EWS-FLI1 (Homo sapiens, UniProt Q8TE49); assay: Ni-NTA pulldown ubiquitination assay in HEK293T cells; format: cell-based; details: compound added 10 hrs prior to cell collection (FIG. 5C)
T1 construct: Myc-Flag; expressed in transfected cells; host or cells: HEK293T
Experimental: Cells were lysed in EBC buffer (50 mM Tris pH 7.5, 120 mM NaCl, 0.5% NP-40) or Triton X-100 buffer (50 mM Tris pH 7.5, 150 mM NaCl, 1% Triton X-100) supplemented with protease inhibitors (Complete Mini, Roche) and phosphatase inhibitors (phosphatase inhibitor cocktail set I and II, Calbiochem). The protein concentrations of whole cell lysates were measured by NanoDrop OneC using the Bio-Rad protein assay reagent as described previously. Equal amounts of whole cell lysates were resolved by SDS-PAGE and immunoblotted with indicated antibodies. For immunoprecipitations analysis, unless specified, 1000 μg lysates were incubated with the indicated antibody (1-2 μg) for 3-4 hr at 4° C. followed by 1 hr incubation with 10 μL Protein A magnetic beads (New England Biolabs). Or 1000 μg lysates containing tagged molecules were incubated with agarose beads coupled antibodies for the specific tag for 3-4 hr at 4° C. For endogenous IPs, incubation of cell lysates with antibodies was extended to overnight. The recovered immuno-complexes were washed five times with NETN buffer (20 mM Tris, pH 8.0, 100 mM NaCl, 1 mM EDTA and 0.5% NP-40) before being resolved by SDS-PAGE and immunoblotted with indicated antibodies.

[2] = tested on: A673 cells xenografted tumor; assay: Mouse xenograft assay with A673 cells; format: in vivo, nude mice
Experimental: All mouse work has been reviewed and approved by UNC Institutional Animal Care and Use Committee under IACUC #19-031. Mouse xenograft assays were performed as described previously. Briefly, for mouse xenograft experiments, 2.5×10^6 parental or EWS-FLI1-3A knockin A673 cells were mixed 1:1 with matrigel (Corning 354230) and injected into the flank of indicated female nude mice (NCRNU-M-M from UNC Animal Facility, 4 weeks old). Six days post-injection, when the tumors were established, 2% sucrose with or without 1 μg/mL tetracycline was supplied in water for mice and refreshed every 5 days. Tumor size was measured every two days with a digital caliper, and the tumor volume was determined with the formula: L×W^2×0.52, where L is the longest diameter and W is the shortest diameter. After 22 days, mice were sacrificed, and tumors were dissected and weighed.
For 7Ai treatment in nude mice, 2.5×10^6 A673 cells were mixed 1:1 with matrigel (Corning 354230) and injected into the flank of indicated female nude mice (NCRNU-M-M from UNC Animal Facility, 4 weeks old). Seven days post-injection, when the tumors were established, 100 μL 7Ai (25 mg/kg, dissolved in ethanol followed by the addition of sunflower oil and then sonicated at 4° C. in a water bath sonicator until 7Ai was completely dissolved) was given to mice through IP injections and this treatment was repeated every 3 days.
Freshly dissected xenografted tumors are immediately fixed in 10% formalin for 2 days before transferring to 80% ethanol for one day to prepare tumor blocks. 4-μm sections were cut from each of the tumor blocks by UNC TPL facility and used for IHC study. IHC was performed as described previously. Normal human tissue TMA was purchased from UNC TPL facility. Human Ewing sarcoma tissues were obtained post-mortem and fixed in 10% formalin and embedded in paraffin.

T1 sequence (Q8TE49 whole entry): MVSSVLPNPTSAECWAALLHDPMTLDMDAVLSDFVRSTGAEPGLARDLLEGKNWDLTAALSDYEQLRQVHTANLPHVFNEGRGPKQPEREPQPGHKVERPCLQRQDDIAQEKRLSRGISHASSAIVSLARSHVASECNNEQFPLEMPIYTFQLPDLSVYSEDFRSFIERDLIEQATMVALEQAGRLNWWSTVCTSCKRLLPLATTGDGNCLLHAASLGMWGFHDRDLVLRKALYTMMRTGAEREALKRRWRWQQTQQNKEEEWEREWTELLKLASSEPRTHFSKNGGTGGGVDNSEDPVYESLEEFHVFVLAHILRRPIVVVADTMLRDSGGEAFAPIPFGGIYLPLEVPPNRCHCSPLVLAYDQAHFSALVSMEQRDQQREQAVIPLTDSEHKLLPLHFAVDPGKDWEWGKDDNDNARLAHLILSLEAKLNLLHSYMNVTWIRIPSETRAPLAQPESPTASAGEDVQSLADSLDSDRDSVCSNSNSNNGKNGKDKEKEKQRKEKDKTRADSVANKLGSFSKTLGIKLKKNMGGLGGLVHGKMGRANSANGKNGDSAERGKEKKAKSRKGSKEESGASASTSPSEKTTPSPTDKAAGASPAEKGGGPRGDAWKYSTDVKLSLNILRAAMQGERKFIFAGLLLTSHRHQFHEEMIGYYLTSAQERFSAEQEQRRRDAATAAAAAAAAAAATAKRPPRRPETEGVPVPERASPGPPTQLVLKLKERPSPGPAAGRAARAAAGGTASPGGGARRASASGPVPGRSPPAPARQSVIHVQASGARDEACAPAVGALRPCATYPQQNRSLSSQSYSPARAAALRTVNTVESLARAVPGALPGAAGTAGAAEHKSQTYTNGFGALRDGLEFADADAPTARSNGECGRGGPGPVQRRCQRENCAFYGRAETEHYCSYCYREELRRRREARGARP

SMILES: Cn1nccc1-c1cc(-c2ccnn2C)n2nc(C(=O)Nc3cnn(Cc4c(Cl)cccc4Cl)c3)cc2n1 [7Ai]
- OTUD7A-mediated deubiquitination of EWS-FLI1 in cells [1]: efficiently blocked OTUD7A-mediated deubiquitination of EWS-FLI1
- tumor volume ([2]; A673 xenograft in nude mice, 25 mg/kg IP, vs vehicle (FIG. 5P)): significantly reduced tumor volume
- tumor growth (dissected tumors, weight) ([2]; A673 xenograft in nude mice, 25 mg/kg IP, vs vehicle (FIGS. 5Q-5R)): significantly reduced
- EWS-FLI1 protein in treated tumors ([2]; A673 xenograft tumors, IHC): reduced EWS-FLI1 protein
- apoptosis in treated tumors (cleaved-caspase3 staining) ([2]; A673 xenograft tumors, IHC): increased apoptosis
- cell proliferation in treated tumors (Ki67 staining) ([2]; A673 xenograft tumors, IHC): reduced
- body weight ([2]; nude mice, 25 mg/kg IP, 3-week treatment period): did not significantly affect body weight
